Several values for one entry are separate records, joined by “and”; a condition that tells them apart may be missing. Equal values may be shown once.
Columns and labels:
[1] = system: diethylstilbestrol (DES)-stimulated growth of mouse uterus; experiment: In vivo wet weight bioassay, inhibition of DES-stimulated growth of uteri; details: for Percent Growth Inhibition: immature mouse uterus
Method: An in vivo wet weight bioassay measuring inhibition of diethylstilbestrol (DES)-stimulated growth was also performed. The procedure of Mizejewski et al. (see previous citations) was used for the wet weight assay. The applicability of the wet weight bioassay for measuring DES-stimulated growth of uteri is disclosed by Korach, K. S. et al., "Estrogenic activity in vivo and in vitro of some diethylstilbestrol metabolites and analogs", Proc Natl Acad Sci USA 75:468-471 (1978).
Briefly, the synthesized powdered peptide was reconstituted in saline (1 mg/ml) to form a stock solution of the GIP. The stock solution was appropriately diluted to provide dosages of 10 ng to 100 μg/mouse. 0.1 ml of the appropriately diluted GIP was injected intraperitoneally into 15-18 day old Nya:NYLAR female mice. Control mice were injected with saline. 1 hour after this first injection, a DES challenge of 0.5 micrograms of DES in 0.1 ml saline was given to determine the change in uterine responsiveness to DES resulting from exposure to the first injection. 23 hours after the second injection, uteri were dissected, trimmed free of connective tissue and immediately weighed. The uterine wet weights were normalized to mouse body weight (mg uterine weight/g of body weight) to compensate for differences in body weight among litters of the same age. Percent inhibition of DES-stimulated uterine growth was calculated as described by Mizejewski et al. (1983).

[2] = system: human MCF-7 breast cancer cells; experiment: In vitro MCF-7 focus assay (estrogen-induced foci formation); format: cell-based; details: for Percent Foci Inhibition: MCF-7 Cell Culture
Excerpt: In an in vitro bioassay, the MCF-7 focus assay was used for preliminary evaluation of the GIP preparation for both estrogenicity and antiestrogenicity. One of the major consequences of human estrogen exposure is induction of cell proliferation and subsequent structural rearrangement of the acini, a process based on the interactions of multiple estrogen dependent gene expressions. […] The estrogen dependent MCF-7 cell proliferation is primarily a postconfluent event which leads to development of multicellular aggregates (foci). […] The procedure of Gierthy et al. was used for the MCF-7 assay of the GIP (see Gierthy, J. F. et al., "Correlation of in Vitro and in Vivo Growth Suppression of MCF-7 Human Breast Cancer by 2,3,7,8-Tetrachlorodibenzo-p-dioxin" Cancer Research 53:3149-3153 (1993)).
Briefly, stock MCF-7 cells were suspended in medium (see Gierthy, J. F. et al. 1993) after treatment with trypsin (0.25%) and seeded into 24-well plastic tissue culture plates. The MCF-7 cells were seeded (2 cm^2 /well) at a density of b 10^5 cells/well in 1 ml of medium, and incubated at 37° C. in a humidified atmosphere containing 5% CO2. The cultures were refed at 24 hours and every 4-5 days thereafter with 2 ml medium supplemented with 1×10^-9 M 17β-estradiol, a concentration which induces maximum focus development, and various concentrations of GIP (10^-8 M-10^-13 M) in nonestrogenic DC5 medium and estrogenic DF5 medium which contains high levels of bovine alpha-fetoprotein (5% fetal bovine serum supplemented). After 14 days the cultures were fixed with formalin in pH 7.4 buffer (see Gierthy, J. F. et al. 1993) and stained with 1% rhodamine B. Foci were counted by using an automated colony counter modified to magnify the image of the microscopic multicellular foci. The foci retained the red rhodamine B stain to a greater extent than did surrounding monolayer cells, affording appropriate contrast for enumeration.

Leu Ser Glu Asp Lys Leu Leu Ala Cys Gly Glu Gly Ala Ala Asp Ile ile Ile Gly His Leu Cys Ile Arg His Glu Met Thr Pro Val Ash Pro Gly Val (LSEDKLLACGEGAADIIIGHLCIRHEMTPVNPGV) [GIP]
inhibition of DES-induced growth (range over Table 3) ([1]; 10ng to 100 μg/mouse): 14-27% | Percent Growth Inhibition ([1]; 10 ng per mouse): 27% | Percent Growth Inhibition ([1]; 100 ng per mouse): 25% | Percent Growth Inhibition ([1]; 800 ng per mouse i.p., DES 0.5 micrograms): 18% | Percent Growth Inhibition ([1]; 1 μg per mouse): 22% | Percent Growth Inhibition ([1]; 10 μg per mouse): 20% | Percent Growth Inhibition ([1]; 100 μg per mouse): 14% | most effective dose ([1]; immature uterus, produced 27% growth inhibition): 10 ng/mouse | inhibition in the MCF-7 cell culture assays ([2]; 10^-10 to 10^-13 M peptide concentration): 60-70% | Percent Foci Inhibition ([2]; 14 days): 60-70% | Percent Foci Inhibition ([2]; peptide molarity 10^-11 -10^-13, 14 days): 60-74% and 50-60% | Percent Foci Inhibition ([2]; peptide molarity 10^-12, added human AFP): 40% | maximum inhibition of DF5 induced foci development ([2]; estrogenic DF5 medium, GIP 10^-10 to 10^-13 M): 74% | concentration at which estrogenic foci induction starts ([2]; nonestrogenic DC5 medium, dose responsive): 10^-8 M
